Consider 19 compounds from patent US10040789B2, “1,3,4-thiadiazole compounds and their use in treating cancer” (AstraZeneca AB, priority 2015, dated 2018).

Each structure is given as a SMILES string. pIC50: −log10 of the molar value. Where two headings read alike, the source gives them in different places.

One test deals with NCI-H1703 cells. Kind of test: GLS Cell Proliferation Assay (NCI-H1703 cell proliferation). It is filed as cell-based. An excerpt:
(§1) The following assays were used to measure the effects of the compounds described herein: a) GLS Enzyme Potency Assay; b) GLS Cell Potency Assay; c) GLS Cell Proliferation Assay. During the description of the assays, generally: • i. The following abbreviations have been used: CO2=Carbon dioxide; DMEM=Dulbecco's Modified Eagle Medium; DMSO=Dimethyl sulphoxide; EDTA=Ethylenediaminetetraacetic acid; EGTA=Ethylene glycol tetraacetic acid; FCS=Foetal calf serum; h=Hour(s); NBS=Non-binding surface; SDS=Sodium dodecyl sulphate; TRIS=Tris(Hydroxymethyl)aminomethane. • ii. IC50 values were calculated using a smart fitting model in Genedata.
Assay c): GLS Cell Proliferation Assay
The ability of compounds to inhibit cell growth was measured using a 384 well plate NCI-H1703 cell proliferation assay. NCI-H1703 cells were grown in phenol red free RPMI1640, 10% FCS and 2 mM glutamine and seeded at a density of 750 cells per well in 40 μl of growth medium into clear-bottom 384 well assay plates (Corning product code 3712) and incubated for 24 h at 37° C., 5% CO2. Test compounds were prepared by dilution in 100% DMSO to give the correct dose range for 12 point concentration response and an appropriate volume (5-120 nl) dispensed directly into the assay plates containing plated cells. DMSO concentration was maintained at 0.3% by back filling with DMSO solution. Plates were incubated for 5 days at 37° C., 5% CO2, Sytox Green and Saponin added to final concentration of 2 μM and 0.25% respectively and incubated for 6 h prior to analysis. Plates were read on an Acumen eX3 (TTP Labtech) using 488 nm excitation and FITC filter set (500-530 nm) for emission. IC50 values were calculated by curve fitting to max inhibition of day zero growth using GeneData software analysis.

Test [1] deals with cellular GLS activity in PC3 cells (Homo sapiens (Human), UniProt O94925). Briefly: GLS Cell Potency Assay (PC3 coupled assay measuring cellular glutamate depletion). The conditions noted are these: PC3 cells, 6 h incubation, cellular glutamate depletion; read-out: Assay b) GLS cell MOA Mean IC50. It is filed as cell-based.
Source text: as §1
Assay b): GLS Cell Potency Assay
Compounds were assessed for their potential to inhibit cellular GLS activity by use of a PC3 coupled assay measuring cellular glutamate depletion. […] DMSO concentration was maintained at 0.3% by back filling with DMSO solution. PC3 cells were grown in phenol free DMEM, 10% dialyzed FCS, 2 mM glutamine and following dispersal by trypsinisation were plated at 5.6×10^3 cells per well in 40 μl of growth medium directly into the 384 well assay plates containing dispensed compound. After incubation for 6 h at 37° C., 5% CO2 growth media was aspirated and cells lysed in 15 μl of buffer containing 10 mM TRIS pH7.4, 100 mM NaCl, 1 mM EDTA, 1 mM EGTA, 1 mM NaF, 20 mM Na4P2O7, 2 mM Na3VO4, 1% Triton X-100, 10% glycerol, 0.1% SDS and 0.5% deoxycholate. 4 μl Of cell lysate was then transferred to a 384 well NBS plate (Corning product code 3575) and 35 μl of […] Amplex Red, 0.1375 U/mL Horseradish Peroxidase, 0.044 U/mL glutamate oxidase, 100 mM TRIS pH7.5 was added.

Another test concerns the target GLS1 (Homo sapiens (Human), UniProt O94925). Briefly: GLS Enzyme Potency Assay (Glutamate Oxidase/AmplexRed coupled assay). The test is classed as biochemical.
Source text: as §1
Assay a): GLS Enzyme Potency Assay
A Glutamate Oxidase/AmplexRed coupled assay was used to measure the ability of compounds to bind to and inhibit the activity of GLS1 in vitro. […] GLS1 was diluted to 2×working concentration and incubated at room temperature to allow the tetrameric/dimeric forms to reach steady state. Assay measurements were performed in buffer comprising 50 mM TRIS pH 7.8, 100 mM NaPO4, pH 7.8, 0.001% v/v Tween20. […] DMSO concentration was maintained at 2% by back filling with DMSO solution. […] 3 μL of 100 mM glutamine diluted in assay buffer was then added and the reaction incubated at room temperature for 60 minutes. […] An artefact version of the assay where the 6His tagged GLS protein and glutamine were replaced with assay buffer was also used to rule out non specific effects on the assay components.

Setting [2] is: Homo sapiens, 120 h; NCI-H1703 cells, 5 days incubation, Sytox Green; read-out: Assay c) Prolif Mean IC50.
[3] abbreviates: recombinant 6His tagged GLS protein (amino acids 63-669), 60 minutes reaction with glutamine.
Setting [4] is: Homo sapiens, NCI-H1703, 120 h, NCI-H1703 cells, 5 days incubation, Sytox Green; read-out: Assay c) Prolif Mean IC50.

Sequence of GLS1 (O94925 63-669): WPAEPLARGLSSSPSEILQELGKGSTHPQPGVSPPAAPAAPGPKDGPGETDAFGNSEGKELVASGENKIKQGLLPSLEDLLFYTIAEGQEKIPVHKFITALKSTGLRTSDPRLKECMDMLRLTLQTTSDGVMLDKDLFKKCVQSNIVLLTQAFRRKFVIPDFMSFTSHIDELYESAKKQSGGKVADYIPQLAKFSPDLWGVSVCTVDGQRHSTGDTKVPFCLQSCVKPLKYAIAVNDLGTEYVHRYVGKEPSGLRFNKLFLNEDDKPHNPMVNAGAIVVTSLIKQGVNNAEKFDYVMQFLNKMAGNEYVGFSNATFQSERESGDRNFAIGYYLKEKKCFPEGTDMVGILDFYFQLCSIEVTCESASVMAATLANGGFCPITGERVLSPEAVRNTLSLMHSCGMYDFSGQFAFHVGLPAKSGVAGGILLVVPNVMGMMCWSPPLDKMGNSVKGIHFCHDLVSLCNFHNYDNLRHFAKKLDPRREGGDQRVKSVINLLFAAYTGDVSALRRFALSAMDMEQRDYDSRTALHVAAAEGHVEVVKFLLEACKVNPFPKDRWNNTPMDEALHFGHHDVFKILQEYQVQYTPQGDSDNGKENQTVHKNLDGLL
Sequence of cellular GLS activity in PC3 cells (O94925 55-669): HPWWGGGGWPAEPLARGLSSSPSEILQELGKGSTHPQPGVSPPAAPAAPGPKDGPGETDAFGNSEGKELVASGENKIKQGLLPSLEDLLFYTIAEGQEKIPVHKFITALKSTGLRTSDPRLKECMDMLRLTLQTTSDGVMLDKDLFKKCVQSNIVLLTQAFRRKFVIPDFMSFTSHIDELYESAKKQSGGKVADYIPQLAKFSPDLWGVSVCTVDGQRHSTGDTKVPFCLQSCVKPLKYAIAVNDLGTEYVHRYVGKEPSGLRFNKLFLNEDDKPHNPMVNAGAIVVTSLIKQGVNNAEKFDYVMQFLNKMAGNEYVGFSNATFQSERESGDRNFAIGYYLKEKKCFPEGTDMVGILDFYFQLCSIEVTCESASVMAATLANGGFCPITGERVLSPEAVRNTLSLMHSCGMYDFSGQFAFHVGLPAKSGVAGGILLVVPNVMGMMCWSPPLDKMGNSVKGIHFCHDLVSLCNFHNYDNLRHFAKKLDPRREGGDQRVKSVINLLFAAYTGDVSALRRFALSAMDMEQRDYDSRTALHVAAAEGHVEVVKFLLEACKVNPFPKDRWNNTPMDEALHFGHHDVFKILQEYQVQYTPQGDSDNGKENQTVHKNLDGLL

The pIC50 is the negative decadic logarithm of the IC50, by convention in mol/L. Turning to `CN(C)[C@@H](C(=O)Nc1nnc(N[C@@H]2CCN(c3cccnn3)C2)s1)c1ccccc1` (single isomer, unassigned) [Example 1(b)], the pIC50 in the test with NCI-H1703 cells (setting [2]) was 7.26.

For `CN(C)[C@H](C(=O)Nc1nnc(N[C@@H]2CCN(c3cccnn3)C2)s1)c1cccc(OC(F)F)c1` [Example 3(a), (2S)-2-[3-(difluoromethoxy)phenyl]-2-(dimethylamino)-N-[5-[[(3R)-1-pyridazin-3-ylpyrrolidin-3-yl]amino]-1,3,4-thiadiazol-2-yl]acetamide], the pIC50 in test [1] was 7.95; in the test on NCI-H1703 cells (setting [2]), 7.90; at GLS1 (setting [3]), 6.58.

With `CN(C)[C@@H](C(=O)Nc1nnc(N[C@@H]2CCN(c3cccnn3)C2)s1)c1cccc(OC(F)(F)F)c1` (single isomer, unassigned) [Example 4(b)], the pIC50 is 8.72 in test [1], 8.60 with NCI-H1703 cells (setting [4]) and 6.28 against GLS1.

For `O=C(Nc1nnc(N[C@@H]2CCN(c3cccnn3)C2)s1)[C@@H](c1cccc(OC(F)F)c1)N1CCC1` (single isomer, unassigned) [Example 5(b)], in the test on NCI-H1703 cells (setting [2]), the pIC50 is 7.88.

Consider `CN(C)[C@H](C(=O)Nc1nnc(N[C@@H]2CCN(c3cccnn3)C2)s1)c1cccc(OC(F)(F)F)c1` [Example 4(a), (2S)-2-(dimethylamino)-N-[5-[[(3R)-1-pyridazin-3-ylpyrrolidin-3-yl]amino]-1,3,4-thiadiazol-2-yl]-2-[3-(trifluoromethoxy)phenyl]acetamide], for which the pIC50 was 9.39 in test [1]; 8.08 with NCI-H1703 cells (NCI-H1703 cells, 5 days incubation, Sytox Green; read-out: Assay c) Prolif Mean IC50); 7.25 at GLS1 (setting [3]).

In the case of `CN(C)[C@@H](C(=O)Nc1nnc(N[C@@H]2CCN(c3cccnn3)C2)s1)c1cccc(OC(F)(F)F)c1` [Example 14, (2R)-2-(dimethylamino)-N-[5-[[(3R)-1-pyridazin-3-ylpyrrolidin-3-yl]amino]-1,3,4-thiadiazol-2-yl]-2-[3-(trifluoromethoxy)phenyl]acetamide], the values for the pIC50 (in test [1]; in the test on NCI-H1703 cells (setting [4]); at GLS1 (setting [3])) were 7.99, 8.28 and 5.65, respectively.

`CN1CCc2ccccc2[C@H]1C(=O)Nc1nnc(N[C@@H]2CCN(c3cccnn3)C2)s1` [Example 8(a), (1S)-2-methyl-N-[5-[[(3R)-1-pyridazin-3-ylpyrrolidin-3-yl]amino]-1,3,4-thiadiazol-2-yl]-3,4-dihydro-1H-isoquinoline-1-carboxamide]: the pIC50 in test [1] is 8.72; with NCI-H1703 cells (setting [2]), 8.06; at GLS1 (setting [3]) it was 7.28.

On to `CN(C)[C@H](C(=O)Nc1nnc(N[C@@H]2CCN(c3cccnn3)C2)s1)c1ccc(F)cc1` [Example 2(a), (2S)-2-(dimethylamino)-2-(4-fluorophenyl)-N-[5-[[(3R)-1-pyridazin-3-ylpyrrolidin-3-yl]amino]-1,3,4-thiadiazol-2-yl]acetamide], for which the pIC50 in the test on NCI-H1703 cells (setting [2]) was 7.05.

For `CN(C)[C@@H](C(=O)Nc1nnc(N[C@@H]2CCN(c3cccnn3)C2)s1)c1ccc(F)cc1` (single isomer, unassigned) [Example 2(b)], the pIC50 in the test on NCI-H1703 cells (setting [2]) is 7.01.

As for `O=C(Nc1nnc(N[C@@H]2CCN(c3cccnn3)C2)s1)[C@@H](c1ccc(F)c(OC(F)(F)F)c1)N1CCC1` (single isomer, unassigned) [Example 11(b)], the pIC50 in test [1] is 8.75; in the test with NCI-H1703 cells (setting [4]), 7.52; on GLS1 it was 6.88.

As for `COc1cccc([C@@H](C(=O)Nc2nnc(N[C@@H]3CCN(c4cccnn4)C3)s2)N2CCC2)c1` [Example 6(a), (2S)-2-(azetidin-1-yl)-2-(3-methoxyphenyl)-N-[5-[[(3R)-1-pyridazin-3-ylpyrrolidin-3-yl]amino]-1,3,4-thiadiazol-2-yl]acetamide], the pIC50 in test [1] is 7.66; with NCI-H1703 cells (setting [4]), 7.53; on GLS1 (setting [3]) it was 6.01.

Consider `O=C(Nc1nnc(N[C@@H]2CCN(c3cccnn3)C2)s1)[C@H](c1ccc(F)c(OC(F)(F)F)c1)N1CCC1` [Example 11(a), (2S)-2-(Azetidin-1-yl)-2-[4-fluoro-3-(trifluoromethoxy)phenyl]-N-[5-[[(3R)-1-pyridazin-3-ylpyrrolidin-3-yl]amino]-1,3,4-thiadiazol-2-yl]acetamide], for which the pIC50 in test [1] is 7.51; in the test with NCI-H1703 cells (setting [4]) it was 7.72; on GLS1 (setting [3]) it was 6.02.

For the compound `O=C(Nc1nnc(N[C@@H]2CCN(c3cccnn3)C2)s1)[C@@H](c1cccc(OC(F)(F)F)c1)N1CCC1` [Example 7(b), (2R)-2-(azetidin-1-yl)-N-[5-[[(3R)-1-pyridazin-3-ylpyrrolidin-3-yl]amino]-1,3,4-thiadiazol-2-yl]-2-[3-(trifluoromethoxy)phenyl]acetamide], the pIC50 in test [1] is 9.01; in the test with NCI-H1703 cells (setting [2]), 8.61; on GLS1 it was 6.99.

As for `COc1ccc([C@H](C(=O)Nc2nnc(N[C@@H]3CCN(c4cccnn4)C3)s2)N(C)C)cc1` [Example 15, (2R)-2-(dimethylamino)-2-(4-methoxyphenyl)-N-[5-[[(3R)-1-pyridazin-3-ylpyrrolidin-3-yl]amino]-1,3,4-thiadiazol-2-yl]acetamide], the pIC50 in test [1] was 7.65; in the test with NCI-H1703 cells (setting [4]), 6.82; on GLS1 (setting [3]) it was 5.43.

As to `CN(C)[C@H](C(=O)Nc1nnc(N[C@@H]2CCN(c3cccnn3)C2)s1)c1cccc(C#N)c1` [Example 13, (2S)-2-(3-cyanophenyl)-2-(dimethylamino)-N-[5-[[(3R)-1-pyridazin-3-ylpyrrolidin-3-yl]amino]-1,3,4-thiadiazol-2-yl]acetamide], the pIC50 in test [1] was 7.95; in the test with NCI-H1703 cells (setting [2]), 7.11; against GLS1, 6.65.

Consider `COc1ccc([C@@H](C(=O)Nc2nnc(N[C@@H]3CCN(c4cccnn4)C3)s2)N(C)C)cc1` [Example 16, (2S)-2-(dimethylamino)-2-(4-methoxyphenyl)-N-[5-[[(3R)-1-pyridazin-3-ylpyrrolidin-3-yl]amino]-1,3,4-thiadiazol-2-yl]acetamide], for which the pIC50 in test [1] is 8.32; in the test with NCI-H1703 cells (setting [4]), 6.88; at GLS1 (setting [3]), 6.70.

`O=C(Nc1nnc(N[C@@H]2CCN(c3ccc(F)nn3)C2)s1)[C@H](c1cccc(OC(F)(F)F)c1)N1CCC1` [Example 12(a), (2S)-2-(azetidin-1-yl)-N-[5-[[(3R)-1-(6-fluoropyridazin-3-yl)pyrrolidin-3-yl]amino]-1,3,4-thiadiazol-2-yl]-2-[3-(trifluoromethoxy)phenyl]acetamide]: the figures for the negative-log IC50 (pIC50) (in test [1]; in the test on NCI-H1703 cells (setting [2]); at GLS1 (setting [3])) were 7.82, 7.94 and 5.60, respectively.

Consider `O=C(Nc1nnc(N[C@@H]2CCN(c3cccnn3)C2)s1)[C@H](c1cccc(OC(F)F)c1)N1CCC1` [Example 5(a), (2S)-2-(azetidin-1-yl)-2-[3-(difluoromethoxy)phenyl]-N-[5-[[(3R)-1-pyridazin-3-ylpyrrolidin-3-yl]amino]-1,3,4-thiadiazol-2-yl]acetamide], for which the pIC50 in the test with NCI-H1703 cells (setting [2]) is 7.53.

On to `CN(C)[C@H](C(=O)Nc1nnc(N[C@@H]2CCN(c3cccnn3)C2)s1)c1ccccc1` [Example 1(a), (2S)-2-(Dimethylamino)-2-phenyl-N-[5-[[(3R)-1-pyridazin-3-ylpyrrolidin-3-yl]amino]-1,3,4-thiadiazol-2-yl]acetamide], for which the pIC50 with NCI-H1703 cells (setting [2]) is 7.16.
